Tests used:
diabetic rats [1] = conditions: cited from earlier work
Na^+ /K^+ ATP ase enzyme = conditions: absorption mechanisms; cited from earlier work
diabetic rats [2] = conditions: oral, cited from earlier work
diabetic rats [3] = assay: Glycemia of diabetic (streptozotocin) and non-diabetic rats after a unique oral administration; format: in vivo, rat
Excerpt: Then, the anti-diabetic activity of the above described complex of vanadyl and cystein has been examined.
The examination has been performed also starting from the compound with the formula (II). The activity of this compound has been compared on diabetic rats and on non-diabetic rats, and the activity of this compound (II) has be compared with that of the vanadyl sulfate.
Tests have been carried out on animals having a glycemia higher than 3 g/l.
The method is as follows. Diabetes is induced by intraveinous injection of a unique dose of streptozotocin of about 50 mg/kg, on male or female rats of the WISTAR strain with a mean weight of 200 g. The glycemia is measured 4 days after the injection.
The procedure of the pharmacological tests is as follows. A quantity of 45 mg/kg of compound (II) is administered by forcible feeding (doses of 10 ml/kg) to animals which have been fed, in the form of a suspension in a 3% solution of gum arabic. A dose of vanadyl sulfate equimolar to 45 mg/kg of compound (II) is administered.
The glycemia is measured by quantitative analysis. Blood is sampled from the tail of the animal. The glycemia is measured by means of a device named "AMES glucometer" (trade-mark). The rate of glycemia is read on "Derotrostix" dipsticks (trade-mark) of the aforesaid device.

[4] = test system: male rats of the WISTAR strain; format: in vivo; conditions: oral, rat
Excerpt: First, the potential toxicity of the complex has been investigated.
The investigation has been carried out starting from the bimolecular vanadyl compound having one free amin group, of the general formula (II). After a unique oral administration to the rat, the measured toxicity of the compound of formula (II) on the one hand and of the vanadyl sulfate on the other hand have been compared.
The procedure of the toxicological tests is as follows.
On the one hand, the toxicity of the compound (II) is examined by administering orally increasing doses of compound (II), up to 1 g/kg, to a group of 10 male rats of the WISTAR strain with a mean weight of 150 g. A quantity of 10 ml/kg of a suspension of compound (II) in 3% gum arabic is administered, by forcible feeding, to animals which have not been fed. Then, the animals are examined for 14 days, in order to count for the deaths and to search and observe the signs of toxicity.
On the other hand, the acute toxicity of the vanadyl sulfate (VOSO4) is contemplated under similar conditions on animals divided into 7 groups of 10 animals to which the following doses have been administered: 300, 400, 500, 600, 800, 1000 and 1500 mg/kg.
The lethal dose (LD50) has been calculated by the method of […] AND WILCOXON.

insulin receptor = conditions: intra-cellular, vanadyl (V^4+) form; cited from earlier work
[5] = 45 mg/kg compound (II) or equimolar vanadyl sulfate

sodium vanadate
effect on cardiac function impairment associated to diabetes (diabetic rats [1]; in drink water, diabetic rats): the impairing of the cardiac function associated to diabetes is prevented | effect on glycemia of diabetic rats (diabetic rats [1]; in drink water, diabetic rats): the glycemia of the rats is normalized | anti-diabetic effect, taken orally (diabetic rats [1]; oral): has an anti-diabetic effect

[O]=[V]([O-])([O-])[O-] [vanadate]
effect on Na+/K+ ATPase (Na^+ /K^+ ATP ase enzyme): inhibiting the Na^+ /K^+ ATP ase enzyme

O=S(=O)([O-])[O-].[O]=[V+2] [vanadyl sulfate]
acute toxicity (diabetic rats [2]; diabetic rats): presents an acute toxicity | anti-diabetic effect in diabetic rats (diabetic rats [2]): has an anti-diabetic effect | duration of the drop of glycemia (diabetic rats [3]; [5]): ≤ 2 h | effect on glycemia (diabetic rats [3]; [5]): weaker and transitory decrease of the glycemia | maximal decrease of glycemia (diabetic rats [3]; vanadyl sulfate equimolar to 45 mg/kg of compound (II)): about 1 g/l | signs of toxicity at the higher doses ([4]; 800, 1000 and 1500 mg/kg): an hypothermia and cases of chromodacryorrhoea | dose of first signs of toxicity ([4]; unique administration): 400 mg/kg | LD50 ([4]; unique administration, 20160 min): 600 mg/kg | signs of toxicity ([4]; unique administration, general and from 400 mg/kg): diarrhoea with a variable seriousness, a decrease of the motor activity and a loss of flesh

[O]=[V+2] [vanadyl (V^4+)]
effect on phosphorylation of the insulin receptor (insulin receptor): facilitating or inducing the phosphorylation of the insulin receptor

— patent US5023358A, “Vanadyl organo-mineral compound, method for obtaining such a compound, pharmaceutical composition containing this organo-mineral compound” (Panmedica S.A., priority 1987, dated 1991)
